Broadly, the AC50 is the concentration at which the activity in the assay is half-maximal.

Calls of active or inactive are those of the source.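 Rule for the calls: active = AC50 no more than ten times the top concentration tested, that is within one log above it; inconclusive = flat curve fit with activity between 30% and 70%, or invalid poor fit; inactive = AC50 beyond ten times the top tested dose.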

This assay has as its system S. cerevisiae Mot1-301 ts growth rescue, BacTiter-Glo ATP luminescence. Kind of assay: restored Mot1-301 yeast growth at 38.5C – whole organism, S. cerevisiae, Mot1-301 ts mutant, luminescence, dose retest, SUMOylation pathway inhibitor project, confirmation (AID 463204).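 Note: growth at restrictive 38.5 degrees C of Mot1-301 OY566 strain; actives raise luminescence by restoring growth of the ts mutant at high temperature.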
As to `O=C(O)CCC(NC(=O)c1ccc(Cl)cc1)C(=O)O` (stereo not drawn), the AC50 is > 42 µM (inactive).
The figure for `CC(=O)Nc1nn(C)c2nc3ccc(C)cc3cc12` is > 42 µM (inactive); for `O=C(O)/C=C/c1cccnc1` it is > 42 µM (inactive).
The figure for `COC(=O)c1sccc1NC(=O)CC1C(=O)NCCN1C(=O)Nc1ccc(F)cc1F` (stereo not drawn) is > 42 µM (inactive).
In the case of `C[C@@]12C(=O)Nc3ccc(F)cc3C(=O)N1[C@H]1c3cc(Cl)ccc3OC[C@@H]1[C@@H]2c1ccccc1` it was 1.97 µM; in that of `CCn1nnc(-c2ccccc2NC(=O)c2cnccn2)n1`, > 42 µM (inactive).
With `CN(C(=O)C1CCCO1)c1nnc(-c2cnccn2)s1` (stereo not drawn), the AC50 is > 42 µM (inactive).
In the case of `CCCOC(=O)c1ccc(O)c(OC)c1`, the AC50 was > 42 µM (inactive).
The figure for `Cc1cc(S(=O)(=O)N2CCCC(N3CCOCC3)C2)c(C)cc1Cl` (stereo not drawn) is > 42 µM (inactive).
`CC1(C)Cc2c(cnn2-c2ccc(F)cc2)C(NC(=O)CCCN2CCCCC2=O)C1` (stereo not drawn): the AC50 is > 42 µM (inactive).
The figure for `CC(C)C[C@@H](CO)N1CCN(Cc2cccnc2)CCC1=O` is > 42 µM (inactive); for `CC(=O)c1cc(C)ccc1OC(=O)c1ccco1` it is > 42 µM (inactive); for `CC1(C)c2[nH]c3ccccc3c2C[C@H]2C(=O)N(Cc3cccc(F)c3)C(=O)N21` it is > 42 µM (inactive).
In the case of `Cc1sc2ncnc(Nc3ccccc3)c2c1C` it was 29.7 µM; in that of `O=C(CN1CCN(C(=O)c2ccccc2)CC1)Nc1ncc(Br)cc1Br`, > 42 µM (inactive); in that of `C[n+]1c(-c2ccccc2)cc(CCCCc2cc(-c3ccccc3)[n+](C)c(-c3ccccc3)c2)cc1-c1ccccc1`, > 21 µM (inactive).
In the case of `COc1ccc(OC)c(-c2cc(C(=O)Nc3c(C)nn(Cc4ccccc4Cl)c3C)no2)c1` it was > 42 µM (inactive); in that of `Cc1cc(-c2nnc3sc(C4CCCCC4)nn23)n[nH]1`, > 42 µM (inactive); in that of `CCOc1ccc(C(=O)c2cccs2)cc1`, > 42 µM (inactive).
Take `CCOC(=O)C1=Nc2ccccc2C1=[N+]=[N-]`: the AC50 was 36.7 µM.
In the case of `COC(=O)c1cccc(NC(=O)c2ccc[n+]([O-])c2)c1` it was > 42 µM (inactive); in that of `COc1ccc(Cl)cc1C(=O)NCCc1ccc(S(=O)(=O)NC(=O)NC2CCCCC2)cc1`, > 42 µM (inactive); in that of `Cn1cccc1CC(=O)N/N=C/c1cccc([N+](=O)[O-])c1`, > 42 µM (inactive).
In the case of `COC/C=C/C1=CC2=CC(=O)C(C)(OC(=O)c3cnc4ccccc4n3)C(=O)C2=CN1CCOC` (stereo not drawn) it was > 42 µM (inactive); in that of `Cc1ccccc1-c1nnc(CN2CCC(C)CC2)o1`, > 42 µM (inactive); in that of `CCOC(=O)c1cnc2oc3ccccc3n2c1=O`, > 42 µM (inactive).
`Cc1cccc(-[n+]2c(-c3cccc(Br)c3)[nH]c3nc4ccccc4nc32)c1`: the AC50 was > 42 µM (inactive).
`O=C(NC1CCCCC1)c1ccc2c(=O)n(CC3CCCO3)c(=O)[nH]c2c1` (stereo not drawn): the AC50 was > 42 µM (inactive).
The figure for `CC(C)c1ccc(C2C(C(=O)c3ccco3)=C(O)C(=O)N2CCN2CCOCC2)cc1` (stereo not drawn) is > 42 µM (inactive).
In the case of `Cc1c(C2(O)CCCCC2)[nH]c2ccc(C#N)cc12` it was 41.9 µM.
With `Cc1nnc(SCC(=O)NC(C)(C)C)n1NCc1ccc(Cl)cc1`, the AC50 is > 42 µM (inactive).
In the case of `CCOC(=O)c1sc(NC(=O)C(CC)OC(=O)c2ccco2)nc1C` (stereo not drawn) it was > 42 µM (inactive); in that of `COc1ccc(S(=O)(=O)N2CCOC2CNC(=O)C(=O)NCc2ccncc2)cc1C` (stereo not drawn), > 42 µM (inactive); in that of `CCOc1ccc(-c2nc3n(c(=O)c2C#N)CCS3)cc1`, > 42 µM (inactive).
In the case of `COC(=O)CCC(=O)OC1(C)C(=O)C2=CN(CCc3c[nH]c4ccccc34)C(c3ccc(OC)cc3)=CC2=C(Br)C1=O` (stereo not drawn) it was > 42 µM (inactive); in that of `O=C(CCC(F)(F)F)N1CCCC(CO)(CCc2ccccc2)C1` (stereo not drawn), > 42 µM (inactive).
The figure for `O=C(NC1CCCCC1)N(Cc1cc2cc3c(cc2[nH]c1=O)OCCO3)C1CCCCC1` is > 42 µM (inactive); for `CC(C)(C)C(=O)C(Cl)C(=O)Nc1ccccc1` (stereo not drawn) it is 3.35 µM; for `Cc1sc(NC(=O)c2ccc(Br)s2)c(C(N)=O)c1C` it is > 42 µM (inactive).
Regarding `COc1ccc(NC(=O)CCC(=O)Nc2nnc(C(F)(F)F)s2)c(OC)c1`, the AC50 is > 42 µM (inactive).
The figure for `O=C1CCCN1CCC1CCN(C2CC(=O)N(c3ccc(Cl)cc3)C2=O)CC1` (stereo not drawn) is 10.1 µM; for `CSc1nnc2c3cc(C)ccc3n(Cc3ccccc3)c2n1` it is > 42 µM (inactive); for `Cc1ccc(NC(=O)CCS(=O)(=O)c2ccc3nc(C)sc3c2)cc1` it is > 42 µM (inactive).
The figure for `O=C(Nc1ccc2c(c1)CCCN2C(=O)c1cccs1)c1cccc(F)c1` is > 42 µM (inactive); for `COCCN(C(=O)c1csnn1)C(C(=O)NC1CCCCC1)c1ccccc1` (stereo not drawn) it is > 42 µM (inactive); for `Fc1ccc(-c2nnc3ccc(N4CCCC4)nn23)cc1` it is > 42 µM (inactive).
The figure for `CCN(CC)c1ccc(Nc2cc3n(c(=O)n2)CCc2cc(OC)c(OC)cc2-3)cc1` is > 42 µM (inactive); for `CCN1C(=S)N[C@@H](c2cccs2)C(C(=O)OC)=C1C` it is > 42 µM (inactive).
For `COC(=O)[C@@H](NC(=O)Nc1ccc(S(N)(=O)=O)cc1)C(C)C`, the AC50 was > 42 µM (inactive).
In the case of `O=C(CCNC(=O)c1ccc(Br)cc1)NCc1ccccc1F` it was > 42 µM (inactive); in that of `CCc1ccc2c(c1)C(c1ccc([N+](=O)[O-])cc1)=NNC(c1ccc(C)cc1)=N2`, > 42 µM (inactive); in that of `O=C(Nc1ccc(F)cc1)c1ccc(CSc2ccccc2)o1`, > 42 µM (inactive).
The figure for `NC(=O)CC(NC(=O)Cc1cccc2ccccc12)c1ccc(NCCCN2CCCC2=O)c([N+](=O)[O-])c1` (stereo not drawn) is > 42 µM (inactive); for `Cn1cc(C(=O)Cc2ccccc2)c2ccccc21` it is > 42 µM (inactive); for `CCOCCCNCc1ccc(OCc2ccc(F)cc2)c(OC)c1` it is > 42 µM (inactive).
The figure for `CC1c2cc3c(cc2CCN1CC(=O)Nc1ccccc1)OCCCO3` (stereo not drawn) is > 42 µM (inactive).
`CN1CCN(CC(=O)N2c3ccccc3C(=O)Nc3cccnc32)CC1`: the AC50 was > 42 µM (inactive).
In the case of `COCCCN1C(=O)c2ccc(C(=O)Nc3ccc(OC)cc3OC)cc2C1=O` it was > 42 µM (inactive); in that of `CSc1ccccc1-n1nnnc1SCC(=O)Nc1ccccc1C`, > 42 µM (inactive).
In the case of `CC(C)(C)C(=O)Nc1ccc(C(=O)NCc2cccnc2)cc1` it was > 42 µM (inactive).
In the case of `COC(=O)c1ccccc1SC(CC(=O)c1ccccc1)c1ccc(F)cc1` (stereo not drawn) it was > 42 µM (inactive); in that of `O=C(c1ccccc1)C(CN1CCCC1)c1ccccc1` (stereo not drawn), 4.34 µM.
In the case of `Cc1cccc(OCC(O)CN2C(C)(C)CC(O)CC2(C)C)c1` (stereo not drawn), the AC50 is > 42 µM (inactive).
